Measurements taken from patent US20250221410A1, “SUBSTITUTED 2-C-AZINES AND SALTS THEREOF, AND USE THEREOF AS HERBICIDAL ACTIVE SUBSTANCES” (BAYER AKTIENGESELLSCHAFT, priority 2022, published 2025).

How the values were obtained:
Type in all cases: in vivo
[1] = system: AMARE: Amaranthus retroflexus; experiment: Post-emergence herbicidal efficacy at 80 g/ha, AMARE; conditions: visual rating about 3 weeks after treatment vs untreated controls
Protocol: Seeds of monocotyledonous and dicotyledonous weeds and crop plants were placed in sandy loam in plastic or organic planting pots, covered with soil and cultivated in a greenhouse under controlled growth conditions. 2 to 3 weeks after sowing, the test plants were treated at the one-leaf stage. The compounds of the invention, formulated in the form of wettable powders (WP) or as emulsion concentrates (EC), were then sprayed onto the green parts of the plants as aqueous suspension or emulsion with addition of 0.5% additive at a water application rate of 600 l/ha (converted). After the test plants had been kept in the greenhouse under optimum growth conditions for about 3 weeks, the activity of the preparations was rated visually in comparison to untreated controls. For example, 100% activity=the plants have died, 0% activity=like control plants. Tables B1 to B10 below show the effects of selected compounds of the general formula (I) according to Table 1 on various harmful plants and an application rate corresponding to 80 g/ha, which were obtained by the experimental procedure mentioned above.

[2] = system: ABUTH: Abutilon theophrasti; experiment: Pre-emergence herbicide efficacy at 1280 g/ha, ABUTH; conditions: visual scoring after about 3 weeks vs untreated controls
Excerpt: (§1) Seeds of mono- and dicotyledonous weed plants were placed in plastic pots in sandy loam soil (doubly sown with one species each of mono- or dicotyledonous weed plants per pot) and covered with soil. The compounds of the invention, formulated in the form of wettable powders (WP) or as emulsion concentrates (EC), were then applied to the surface of the covering soil as aqueous suspension or emulsion with addition of 0.5% additive at a water application rate of 600 litres per hectare (converted). After the treatment, the pots were placed in a greenhouse and kept under good growth conditions for the test plants. After about 3 weeks, the efficacy of the preparations was scored visually in comparison with untreated controls as percentages. For example, 100% activity=the plants have died, 0% activity=like control plants. Tables C1 to C12 below show the effects of selected compounds of the general formula (I) according to Table 1 on various harmful plants and at an application rate corresponding to 1280 g/ha, which were obtained by the trial procedure specified above.

[3] = system: AMARE: Amaranthus retroflexus; experiment: Pre-emergence herbicide efficacy at 1280 g/ha, AMARE; conditions: visual scoring after about 3 weeks vs untreated controls
Excerpt: as §1

KCHSC: Kochia scoparia [4] = experiment: Post-emergence herbicidal efficacy at 1280 g/ha, KCHSC; conditions: visual rating about 3 weeks after treatment vs untreated controls
Protocol: (§2) Seeds of mono- and dicotyledonous weed plants were placed in plastic pots in sandy loam soil (doubly sown with in each case one species of mono- or dicotyledonous weed plants per pot), covered with soil and cultivated in a greenhouse under controlled growth conditions. 2 to 3 weeks after sowing, the test plants were treated at the one-leaf stage. The compounds of the invention, formulated in the form of wettable powders (WP) or as emulsion concentrates (EC), were applied to the green parts of the plants as aqueous suspension or emulsion with addition of 0.5% additive at a water application rate equivalent to 600 litres per hectare. After the test plants had been kept in the greenhouse under optimum growth conditions for about 3 weeks, the activity of the preparations was rated visually in comparison to untreated controls. For example, 100% activity=the plants have died, 0% activity=like control plants. Tables A1 to A12 below show the effects of selected compounds of the general formula (I) according to Table 1 on various harmful plants and at an application rate corresponding to 1280 g/ha, which were obtained by the trial procedure specified above.

VERPE: Veronica persica [5] = experiment: Post-emergence herbicidal efficacy at 1280 g/ha, VERPE; conditions: visual rating about 3 weeks after treatment vs untreated controls
Protocol: as §2

POAAN: Poa annua [6] = experiment: Pre-emergence herbicide efficacy at 1280 g/ha, POAAN; conditions: visual scoring after about 3 weeks vs untreated controls
Excerpt: as §1

STEME: Stellaria media [7] = experiment: Pre-emergence herbicide efficacy at 1280 g/ha, STEME; conditions: visual scoring vs untreated controls
Excerpt: as §1

[8] = system: AMARE: Amaranthus retroflexus; experiment: Post-emergence herbicidal efficacy at 1280 g/ha, AMARE; conditions: rated visually after about 3 weeks vs untreated controls, 100% = plants have died, 0% = like control plants
Protocol: as §2

STEME: Stellaria media [9] = experiment: Post-emergence herbicidal efficacy at 1280 g/ha, STEME; conditions: visual rating about 3 weeks after treatment vs untreated controls
Protocol: as §2

POAAN: Poa annua [10] = experiment: Post-emergence herbicidal efficacy at 1280 g/ha, POAAN; conditions: visual rating about 3 weeks after treatment vs untreated controls
Protocol: as §2

SETVI: Setaria viridis [11] = experiment: Pre-emergence herbicide efficacy at 1280 g/ha, SETVI; conditions: visual scoring vs untreated controls
Excerpt: as §1

VERPE: Veronica persica [12] = experiment: Pre-emergence herbicide efficacy at 1280 g/ha, VERPE; conditions: visual scoring vs untreated controls
Excerpt: as §1

[13] = system: ECHCG: Echinochloa crus-galli; experiment: Pre-emergence herbicide efficacy at 1280 g/ha, ECHCG; conditions: visual scoring after about 3 weeks vs untreated controls
Excerpt: as §1

[14] = system: DIGSA: Digitaria sanguinalis; experiment: Pre-emergence herbicide efficacy at 1280 g/ha, DIGSA; conditions: visual scoring after about 3 weeks vs untreated controls
Excerpt: as §1

KCHSC: Kochia scoparia [15] = experiment: Pre-emergence herbicide efficacy at 1280 g/ha, KCHSC; conditions: visual scoring after about 3 weeks vs untreated controls
Excerpt: as §1

SETVI: Setaria viridis [16] = experiment: Post-emergence herbicidal efficacy at 1280 g/ha, SETVI; conditions: visual rating about 3 weeks after treatment vs untreated controls
Protocol: as §2

Structure (SMILES) | Post-emergence efficacy against AMARE [1] [%] | Pre-emergence efficacy against ABUTH [2] [%] | Pre-emergence efficacy against AMARE [3] [%] | Post-emergence efficacy against KCHSC (KCHSC: Kochia scoparia [4]) [%] | Post-emergence efficacy against VERPE (VERPE: Veronica persica [5]) [%] | Pre-emergence efficacy against POAAN (POAAN: Poa annua [6]) [%] | Pre-emergence efficacy against STEME in % (STEME: Stellaria media [7]) [%] | Post-emergence efficacy at 1280 g/ha against AMARE in % [8] [%] | Post-emergence efficacy against STEME (STEME: Stellaria media [9]) [%] | Post-emergence efficacy against POAAN (POAAN: Poa annua [10]) [%] | Pre-emergence efficacy against SETVI in % (SETVI: Setaria viridis [11]) [%] | Pre-emergence efficacy against VERPE in % (VERPE: Veronica persica [12]) [%] | Pre-emergence efficacy against DIGSA [14] [%] | other results
O=S(=O)(CCC(F)(F)F)c1ccccc1Cc1ncc(F)cn1 [Example 1-150] | 80 | – | – | – | – | – | – | – | – | – | – | – | – | –
O=S(=O)(CCC(F)(F)F)Oc1c(Cl)cccc1Cc1ncc(Cl)cn1 [Example 1-20] | 90 | – | – | – | – | – | – | – | – | – | – | – | – | –
N#CC(c1ccc(Cl)cn1)c1ccccc1Cc1ccc(F)cc1 (stereo not shown) [Example 1-82] | – | 100 | 100 | 90 | 90 | 90 | 100 | 100 | – | – | – | – | – | –
COc1cccc(Cc2ncc(Cl)cn2)c1Oc1ccc(F)cc1 [Example 1-33] | – | – | 100 | – | 90 | 100 | 90 | – | 90 | 90 | 100 | 100 | – | –
Fc1cccc(OCCCC(F)(F)F)c1Cc1ncc(Cl)cn1 [Example 1-60] | – | – | – | – | 100 | 90 | – | – | – | – | – | 90 | – | –
FC(F)(F)CCCOc1ccccc1Cc1ncc(Cl)cn1 [Example 1-8] | – | – | 100 | – | 100 | – | 90 | – | 90 | – | 90 | – | 100 | Pre-emergence efficacy against ECHCG [13]: 90%
[O-][S+](c1ccc(F)cc1)c1ccccc1Cc1ncc(Cl)cn1 (stereo not shown) [Example 1-142] | 80 | – | – | – | – | – | – | – | – | – | – | – | – | –
Fc1ccc(Oc2ccccc2Cc2ccc(Cl)cn2)cc1 [Example 1-74] | – | – | 100 | – | – | 100 | – | 90 | – | 90 | 100 | – | 100 | Pre-emergence efficacy against KCHSC (KCHSC: Kochia scoparia [15]): 90%; Post-emergence efficacy against SETVI (SETVI: Setaria viridis [16]): 90%
Fc1ccc(Oc2ccccc2Cc2ncccn2)cc1 [Example 1-98] | – | 100 | 100 | 90 | 100 | 90 | 90 | 100 | 90 | 90 | 90 | 90 | 100 | Pre-emergence efficacy against ECHCG [13]: 90%
N#CC(c1ncc(Cl)cn1)c1cccc(C(F)(F)F)c1Oc1ccc(F)cc1 (racemic) [Example 1-39] | – | 100 | – | 90 | 100 | – | – | – | – | – | – | – | – | –
